Measured values: patent publication US20240139188A1, “Arylamide Compounds For Treatment And Prevention Of Fungal Infections” (priority 2022, published 2024)
≈ marks a conversion by molar mass, not a printed value. Where “and” joins values, the source holds several entries; their conditions need not be identical. Equal entries are not always repeated. Where two headings read alike, the source gives them in different places.

Assays:
A. fumigatus [1] = test: MIC/MEC, CLSI M38-A2; assay type: cell-based, Aspergillus fumigatus
[2] = system: A. fumigatus cell membrane potential; test: Membrane potential determination, DiBAC4(3); assay type: cell-based, Aspergillus fumigatus; details: CAS 0.125 μg/ml, 30 minutes
Description: Membrane potential determination: […] Biotechnol., 2021, 14, 262-276) with modifications. […] After, the germlings were washed with sterile PBS (140 mM NaCl, 2 mM KCl, 10 mM NaHPO4, 1.8 mM KH2PO4, pH 7.4). The fluorescence was analyzed with excitation wavelength of 450-490 nm, and emission wavelength of 525-550 nm on the Observer Z1 fluorescence microscope (Carl Zeiss) using the 100× with Differential interference contrast (DIC) images. Fluorescent images were captured with an AxioCam camera (Carl Zeiss, Inc.) and processed using the Axio Vision software (version 4.8).

C. neoformans [3] = test: MIC for yeasts, CLSI M27-A3; assay type: cell-based, Cryptococcus neoformans; details: Cryptococcus neoformans H99; read-out: MIC CAS
[4] = system: A. fumigatus clinical isolates; test: Growth inhibition of clinical isolates by CAS, VOR, BRI and combinations
C. auris = test: MIC for yeasts, CLSI M27-A3; assay type: cell-based, Candida auris
chitin synthase genes = test: Chitin synthase mRNA accumulation (RT-qPCR); details: wild-type strain, 1 hour exposure; not in the mutant strains
Description: RNA-sequencing. cDNA synthesis and RTqPCR: All experiments were carried out in biological triplicates and conidia (10^7) were inoculated in liquid MM and A. fumigatus strains were grown for 16 hours at 37 ° C. and treated or not with different concentrations of BRI, CAS, or BRI+CAS for 1 hour. For total RNA isolation, mycelia were ground in liquid nitrogen and total RNA was extracted using TRIzol (Invitrogen), treated with RQ1 RNase-free DNase I (Promega), and purified using the RNAeasy kit (Qiagen) according to the manufacturer's instructions. RNA was quantified using a NanoDrop and Qubit fluorometer, and analyzed using an Agilent 2100 Bioanalyzer system to assess the integrity of the RNA.
For RT-qPCR, the RNA was reverse transcribed to cDNA using the ImProm-II reverse transcription system (Promega) according to manufacturer's instructions, and the synthesized cDNA was used for real-time analysis using the SYBR green PCR master mix kit (Applied Biosystems) in the ABI 7500 Fast real-time PCR system (Applied Biosystems, Foster City, CA, USA).
CrzA:GFP = CrzA:GFP translocation to the nucleus; details: CAS 0.07 μg/ml, 30 minutes
Description: Conidia were germinated in YG medium and grown for 13 hours and then exposed or not to BRI, CAS, and BRI+CAS for 30 minutes.

C. neoformans [5] = test: BRI+CAS against yeasts, colony forming units; details: CAS 16 μg/ml alone, 48 hours
Description: Combination of Brilacidin and caspofungin against yeasts: For measuring the effect of the combination BRI+CAS against yeast fungal pathogens, two methods were used: (i) metabolic activity by XTT-assay and (ii) colony forming units (CFUs). For the first method, C. neoformans, C. albicans, and C. auris 10^4 cells were inoculated in RPMI-1640 supplemented with CAS 0 to 32 μg/ml (for C. neoformans) and 0 to 1 μg/ml (for Candida spp.) or the same concentrations of CAS combined with BRI 0.625 μM (for C. neoformans), BRI 20 μM (for C. albicans), and BRI 10 μM (for C. auris). […] XTT-assays were also used for C. albicans caspofungin resistant strains but with CAS 0.5 μg/ml combined with BRI 5, 10 or 20 μM. The same experimental design was used for the CFUs determination, except that after 48 hours the cells present in the wells were plated on YPD (yeast extract 10g, peptone 20g, dextrose 20g, agar 20 g, water 1000 mL) and the plates were incubated at 30° C. for 24-48 hours for determining the survival percentage.

C. albicans = test: MIC for yeasts, CLSI M27-A3; assay type: cell-based, Candida albicans
A. fumigatus [6] = test: Fungal burden, chemotherapeutic murine model of IPA; assay type: in vivo, BALB/c mice; details: CAS 1 mg/kg, 3 days post-infection, vs non-treated mice
Description: Fungal burden: Inbred female mice (BALB/c strain; body weight, 20-22 g) were housed in vented cages containing five animals. Mice were immunosuppressed with cyclophosphamide (150 mg per kg of body weight), which was administered intraperitoneally on days −4, −1 and 2 prior to and post infection (infection day is “day 0”). Hydrocortisonacetate (200 mg/kg body weight) was injected subcutaneously on day −3. Mice (5 mice per group) were anesthetized by halothane inhalation and infected by intranasal instillation of 20 μL of 1.0×10^6 conidia of A. fumigatus Δku80 pyrG^+ (wild-type) (the viability of the administered inoculum was determined by incubating a serial dilution of the conidia on MM medium, at 37° C.). As a negative control, a group of 5 mice received PBS only. […]
DNA quantity and quality were assessed using a NanoDrop 2000 spectrophotometer (Thermo Scientific). Quantitative real-time PCRs were performed using 400 ng of total DNA from each sample, and primers to amplify the 18S rRNA region of A. fumigatus and an intronic region of mouse GAPDH (glyceraldehyde-3-phosphate dehydrogenase). Six-point standard curves were calculated using serial dilutions of gDNA from A. fumigatus strain and the uninfected mouse lung. Fungal and mouse DNA quantities were obtained from the threshold cycle (Ct) values from an appropriate standard curve.

[7] = system: A. fumigatus null mutants; test: Phosphatase and kinase null mutant screening; assay type: cell-based, Aspergillus fumigatus; note: key: +: sensitivity similar to wild-type; −: more sensitive than the wild-type
Description: Phosphatase and kinase null mutant screening: An A. fumigatus phosphatase deletion library encompassing 25 null mutants for phosphatase catalytic subunits (Winkelströter et al., G3 (Bethesda), 2015, 5, 1525-39) was screened for sensitivity to the combination of CAS+BRI. […] In each well a total of 200 μL of liquid MM plus conidia from the different mutants (1×10^4 conidia/mL) was incubated in the presence of BRI (20 μM).

With `CC[C@H](C)C[C@H](C)CCCCCCCCC(=O)N[C@H]1C[C@@H](O)[C@@H](NCCN)NC(=O)[C@@H]2[C@@H](O)CCN2C(=O)[C@H]([C@H](O)CCN)NC(=O)[C@H]([C@H](O)[C@@H](O)c2ccc(O)cc2)NC(=O)[C@@H]2C[C@@H](O)CN2C(=O)[C@H]([C@@H](C)O)NC1=O` [CAS, caspofungin] the “MEC of CAS” value (A. fumigatus [1]; A. fumigatus) was 0.2 µg/mL and 0.25 µg/mL, the “MEC CAS” value (A. fumigatus [1]; A. fumigatus CM7555 CAS^R) was 16 µg/mL and the “MEC CAS” value (A. fumigatus [1]; A. fumigatus DPL1033 CAS^R) was 16 µg/mL. The “MEC CAS” value (A. fumigatus [1]; A. fumigatus MD24053 CAS^R) was 16 µg/mL, the “MEC CAS” value (A. fumigatus [1]; A. fumigatus WT) was 0.25 µg/mL and the “MEC CAS” value (A. fumigatus [1]; A. fumigatus clinical isolates susceptible to CAS) was 0.25 µg/mL. For the same compound, the “MEC CAS” value (A. fumigatus [1]; CAS-resistant clinical strains DPL1033, MD24053, CM7555) was 16 µg/mL, the “fluorescent germlings (membrane depolarization)” value [2] was roughly 25% and the MIC (C. neoformans [3]) was 32 µg/mL (≈ 29.3 µM). For the same compound, the “growth, CAS alone” value ([4]; CM7555 CAS^R, CAS 0.25 μg/mL) was “+”, the “growth, CAS alone” value ([4]; CM7555 CAS^R, CAS 2 μg/mL) was “+” and the “growth, CAS alone” value ([4]; CM7555 CAS^R, CAS 4 μg/mL) was “+”. The “growth, CAS alone” value ([4]; DPL1033 CAS^R, CAS 0.25 μg/mL) was “+”, the “growth, CAS alone” value ([4]; DPL1033 CAS^R, CAS 2 μg/mL) was “+” and the “growth, CAS alone” value ([4]; DPL1033 CAS^R, CAS 4 μg/mL) was “+”. The “growth, CAS alone” value ([4]; MD24053 CAS^R, CAS 0.25 μg/mL) was “+”, the “growth, CAS alone” value ([4]; MD24053 CAS^R, CAS 2 μg/mL) was “+” and the “growth, CAS alone” value ([4]; MD24053 CAS^R, CAS 4 μg/mL) was “+”. For the same compound, the “growth, CAS alone” value ([4]; WT, CAS 0.25 μg/mL) was “+”, the “growth, CAS alone” value ([4]; WT, CAS 2 μg/mL) was “+” and the “growth, CAS alone” value ([4]; WT, CAS 4 μg/mL) was “+”. For the same compound, the “MIC CAS” value (C. auris; Candida auris 468/2015) was 1.0 µg/mL (≈ 0.915 µM), the “MIC CAS” value (C. auris; Candida auris 469/2015) was 1.0 µg/mL (≈ 0.915 µM) and the “MIC CAS” value (C. auris; Candida auris 470/2015) was 1.0 µg/mL (≈ 0.915 µM). For the same compound, the “MIC CAS” value (C. auris; Candida auris 471/2015) was 1.0 µg/mL (≈ 0.915 µM), the MIC (C. auris; Candidozyma auris, Candida auris 467/2015, read-out: MIC CAS) was 1 µg/mL (≈ 0.915 µM) and the “chitin synthase gene expression” value (chitin synthase genes) was “induce some of these genes”. The “germlings with CrzA:GFP in the nuclei” value (CrzA:GFP) was 28.3%, the “decrease of survival (CFUs)” value (C. neoformans [5]) was “about 50%” and the MIC (C. albicans; Candida albicans SC5314, read-out: MIC CAS) was 0.25 µg/mL (≈ 0.229 µM). For the same compound, the MIC (C. albicans; Candida albicans, read-out: MIC CAS, Candida albicans DPL1006 CAS^R (FKS1 F641L)) was 2 µg/mL (≈ 1.83 µM), the MIC (C. albicans; Candida albicans, read-out: MIC CAS, Candida albicans DPL1007 CAS^R (FKS1 F641S)) was 4 µg/mL (≈ 3.66 µM) and the MIC (C. albicans; Candida albicans, read-out: MIC CAS, Candida albicans DPL1009 CAS^R (FKS1 S645Y)) was 4 µg/mL (≈ 3.66 µM). For the same compound, the MIC (C. albicans; Candida albicans, read-out: MIC CAS, Candida albicans DPL1010 CAS^R (FKS1 S645F)) was 2 µg/mL (≈ 1.83 µM), the MIC (C. albicans; Candida albicans, read-out: MIC CAS, Candida albicans DPL1011 CAS^R (FKS1 S645F + R1361R/H)) was 4 µg/mL and the “reduction of fungal burden in the lungs” value (A. fumigatus [6]) was “approximately 50%”. The “sensitivity, CAS (0.25 μg/mL)” value ([7]; Afs35 (wild-type; A1159)) was “+”, the “sensitivity, CAS (0.25 μg/mL)” value ([7]; CEA17 (wild-type; A1160)) was “+” and the “sensitivity, CAS (0.25 μg/mL)” value ([7]; ΔcalA (Afu5g09360)) was “+”. The “sensitivity, CAS (0.25 μg/mL)” value ([7]; ΔcdcA (Afu3g12250)) was “+”, the “sensitivity, CAS (0.25 μg/mL)” value ([7]; ΔdspA (Afu1g13040)) was “+” and the “sensitivity, CAS (0.25 μg/mL)” value ([7]; ΔdspB (Afu1g03540)) was “+”. For the same compound, the “sensitivity, CAS (0.25 μg/mL)” value ([7]; ΔdspD (Afu2g02760)) was “+”, the “sensitivity, CAS (0.25 μg/mL)” value ([7]; ΔltpA (Afu2g01880)) was “+” and the “sensitivity, CAS (0.25 μg/mL)” value ([7]; ΔmpkA) was “−”. For the same compound, the “sensitivity, CAS (0.25 μg/mL)” value ([7]; ΔmpkB) was “+”, the “sensitivity, CAS (0.25 μg/mL)” value ([7]; ΔmpkC) was “+” and the “sensitivity, CAS (0.25 μg/mL)” value ([7]; ΔnemA (Afu1g09460)) was “+”. For the same compound, the “sensitivity, CAS (0.25 μg/mL)” value ([7]; ΔpphA (Afu5g12010)) was “+”, the “sensitivity, CAS (0.25 μg/mL)” value ([7]; ΔppmA (Afu8g04580)) was “+” and the “sensitivity, CAS (0.25 μg/mL)” value ([7]; ΔppsA (Afu5g11690)) was “+”. For the same compound, the “sensitivity, CAS (0.25 μg/mL)” value ([7]; ΔpptA (Afu5g06700)) was “+”, the “sensitivity, CAS (0.25 μg/mL)” value ([7]; ΔppzA (Afu2g03950)) was “+” and the “sensitivity, CAS (0.25 μg/mL)” value ([7]; ΔpsrA (Afu1g04790)) was “+”. The “sensitivity, CAS (0.25 μg/mL)” value ([7]; ΔptcA (Afu1g15800)) was “+”, the “sensitivity, CAS (0.25 μg/mL)” value ([7]; ΔptcB (Afu1g09280)) was “+” and the “sensitivity, CAS (0.25 μg/mL)” value ([7]; ΔptcD (Afu5g13740)) was “+”. For the same compound, the “sensitivity, CAS (0.25 μg/mL)” value ([7]; ΔptcE (Afu2g03890)) was “+”, the “sensitivity, CAS (0.25 μg/mL)” value ([7]; ΔptcF (Afu1g06860)) was “+” and the “sensitivity, CAS (0.25 μg/mL)” value ([7]; ΔptcG (Afu5g13340)) was “+”. For the same compound, the “sensitivity, CAS (0.25 μg/mL)” value ([7]; ΔptcH (Afu4g00720)) was “+”, the “sensitivity, CAS (0.25 μg/mL)” value ([7]; ΔptpB (Afu3g10970)) was “+” and the “sensitivity, CAS (0.25 μg/mL)” value ([7]; ΔptyA (Afu6g06650)) was “+”. The “sensitivity, CAS (0.25 μg/mL)” value ([7]; ΔpypA (Afu4g04710)) was “+”, the “sensitivity, CAS (0.25 μg/mL)” value ([7]; ΔsakA) was “+” and the “sensitivity, CAS (0.25 μg/mL)” value ([7]; ΔsakA, ΔmpkC) was “+”. For the same compound, the “sensitivity, CAS (0.25 μg/mL)” value ([7]; ΔsitA (Afu6g11470)) was “+” and the “sensitivity, CAS (0.25 μg/mL)” value ([7]; ΔyphA (Afu4g07000)) was “+”.
